From patent publication US7605175B2, “Inhibitors of cyclin-dependent kinases, compositions and uses related thereto” (GPC Biotech AG, priority 2001, dated 2009)
One block for each compound: values may come before it.

What was measured:
HCT-116 cells [1] = assay: BrdU incorporation assay; type: cell-based; conditions: Homo sapiens, read-out: Brd U, concentration that inhibits BrdU incorporation by 50%
Procedure: This method measured the percentage of cells that incorporated the nucleotide analog, BrdU, into newly synthesized DNA as cells progressed through the S phase of the cell cycle. The inhibition of BrdU incorporation was used as a measure of a Cdk inhibitor's effect on S phase progression and DNA replication.
3 sets of HCT-116 cells (100,000 cells/set) were plated in T25 flasks and incubated with a test compound as above. Analysis was done at 24, 48, and 72 hours. BrdU was added to each T-25 flask from a stock of 10 mg/ml to a final concentration of 10 μM and the cells were incubated for an additional 16-18 hours at 37° C. The cells were then prepared for flow cytometric analysis according to manufacturer's protocol (BrdU Flow kit, BD-Pharmingen catalogue #2354KK) as follows:
Cells were harvested (adherent and floating) from the T25 flasks directly into Falcon 12×75 flow cytometric tubes as above followed by fixation and permeabilization with the addition of 100 μl of Cytofix/Cytoperm buffer (30 minutes, room temperature). The cells were then washed with 1 ml of Perm Wash buffer and the cell pellets were resuspended in 100 μl Cytoperm Plus buffer and incubated on ice for 10 minutes. The cells were then washed again with 1 ml of Perm Wash buffer and the fixation was repeated in 100 μl of Cytofix/Cyto Perm buffer for 10 minutes at room temperature. The cells were then washed with 1 ml of Perm Wash buffer. The cells were next treated for one hour at 37° C. with 100 μl DNase to expose incorporated BrdU followed by another wash step with 1 ml of Perm Wash buffer. […] Cells were protected from light and incubated at room temperature for 20-30 minutes. Following the incubation, the cells were washed with 1 ml of Perm Wash buffer, resuspended in 300 μl of 2% FBS in PBS, and analyzed on the flow cytometer. Results are presented in Table 2 as the concentration of compound (μM) that inhibits of BrdU incorporation by 50%.

arrested HCT-116 cells = assay: Arrested cell assay, arrested HCT-116 tumor cells; type: cell-based; conditions: Homo sapiens, serum-starved arrested cells, 72 hours, read-out: Arrested cell assay HCT IC50
Procedure: (§1) Cyclin-dependent kinase (Cdk) activity is required to promote the progression of cells through distinct phases of the cell division cycle. The proliferation of normal, non-transformed, cells in culture requires the presence of growth factors, the removal of which, through serum deprivation, leads to a loss of Cdk activity and consequent exit from the cell cycle as cells enter the quiescent phase, G0.
HCT-116 cells were plated in triplicate for each compound concentration to be tested in RPMI 1640 media containing 10% fetal calf serum at a density of either 200 or 2,000 cells per well in 24 well dishes, and incubated overnight at 37° C., 5% CO2. The media from the plate containing 2,000 cells per well was removed, cells were washed once with serum free media and 1 ml of serum free media was placed on cells. The plates containing cells both in the presence and absence of serum were incubated for 6 additional days.
(§2) The cells are incubated in the presence of the compounds for 72 hours (3 days) at 37° C. […] Cycling and arrested HCT-116 cells as well as cycling IMR90 cells were exposed to a panel of 6 doses ranging from 5 to 250 nM. For arrested normal cells, the range of doses was increased to 50 nM to 25 μM, to compensate for the expected decrease in activity.
(§3) The effect of 72 hours of compound exposure on cellular viability was assessed in the Calcein AM assay. Calcein AM is a fluorescent substrate of intracellular esterases that are only active in viable cells. Cleavage of the substrate thus provides a measure of viability, which is proportional to cell number.
(§4) A Calcein AM stock solution was prepared by dissolving a 50 μg aliquot (Molecular Probes catalogue # C3100) in 50 μl DMSO. The tube was incubated at room temperature for approximately 10 minutes to ensure that the Calcein had dissolved completely. The calcein was diluted into 10 ml PBS to prepare the final solution, which was protected from light.
(§5) The media was aspirated off the cells, which were then washed twice with 1 ml PBS to remove the PBS completely from cells by aspiration. 0.5 ml of the Calcein/PBS solution was transferred by pipette into each well. The plates were incubated at 37° C. for 75 minutes (protected from light) and read on a fluorescent plate reader (excitation 485/20 and emission 530/25).

arrested IMR90 cells = assay: Arrested cell assay, arrested IMR90 normal cells; type: cell-based; conditions: Homo sapiens, IMR-90; serum-starved arrested cells, 72 hours; read-out: Arrested cell assay IMR90 IC50
Procedure: as §1
IMR90 cells were plated in triplicate for each compound concentration to be tested in MEM-A media containing 10% fetal calf serum at a density of either 2,000 or 20,000 cells per well in 24-well dishes and incubated overnight at 37° C., 5% CO2. The media was removed from the 20,000 cell-per-well dish, cells were washed once with serum-free media, and serum-free media was placed on cells. The plates containing cells both in the presence and absence of serum were incubated for 3 additional days.
as §2, §3, §4, §5

[2] = biological target: protein kinase C (mixed isozymes); assay: Protein kinase C TCA precipitation assay; type: biochemical, rat; conditions: Table 5; read-out: PKC IC50
Procedure: Enzymes: Cdc2/cyclin B was obtained from commercial sources. Cdk2/his-cyclin Eshort was expressed in Sf9 cells. Cdk2/cyclin A, cdk4/cyclin D1, and cdk6/cyclin D2 were expressed in Sf9 cells. Protein kinase A (catalytic subunit, from bovine heart) and protein kinase C (mixed isozymes from rat brain) were obtained from commercial sources.
Protein kinase C and protein kinase A were assayed using a TCA precipitation assay with Histone H1 as a substrate. For protein kinase A, the final assay contained 50 mM Tris, 10 mM MgCl2, 1 mM dithiothreitol, pH 7.5, 12 μM adenosine triphosphate, 10% (v/v) dimethylsulfoxide (from compounds), 20 μg Histone H1, 2 μCi [γ-^32P] adenosine triphosphate, 0.2 U protein kinase A in a 100 μL assay. A protein kinase C assay contained 50 mM Tris, 10 mM MgCl2, 1 mM dithiothreitol, 0.8 mM CaCl2, pH 7.5, 5 μM adenosine triphosphate, 10% (v/v) dimethylsulfoxide (from compounds), 20 μg Histone H1, 2 μCi [γ-^32P] adenosine triphosphate, 0.01 U protein kinase C in a 50 μL assay. The assays were started by the addition of enzyme, allowed to react for 10 min at 30° C., and stopped by adding 0.4 volumes of 237 mM disodium ethylenediamine tetraacetate, 105 mM adenosine triphosphate, pH 8.0. […] The filters were washed ten times with 25% (w/v) trichloroacetic acid, and the amount of incorporated [^32P]phosphate was determined by adding 100 μl Microscint and scintillation counting.

HIV-1 ROJO = assay: Antiviral activity in PBMCs infected with HIV-1 ROJO (reverse transcriptase); type: cell-based
Procedure: (§6) The activity of the certain compounds of the invention was evaluated in peripheral blood mononuclear cells (PBMCs) infected with the low passage, clinical isolate HIV-1 ROJO to generate a measure of the efficacy of these compounds in acutely infected cells. The use of these normal human cells allows an estimate of the therapeutic index of these compounds to be made. Fresh PBMCs from two donors were pooled and stimulated with PHA-P for 48-72 hours. The cells were then cultured in the presence of IL-2 to maintain the cell division initiated by the mitogenic signal. The virus was added at a multiplicity of infection of 0.1. The cells were cultured for 7 days post infection prior to the evaluation of efficacy. Viral replication was measured by the level of reverse transcriptase activity in the supernatant and cytotoxicity was measured with the MTS assay.

[3] = system: peripheral blood mononuclear cells (PBMCs); assay: Cytotoxicity in PBMCs (MTS assay); type: cell-based, human; conditions: read-out: TC50: 50% cytoxicity (MTS)
Procedure: as §6

HCT-116 cells [4] = assay: Calcein AM viability assay, HCT-116; type: cell-based; conditions: Homo sapiens
Summary of the method: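 Cells plated (1,000 HCT-116 in RPMI-1640/10% FCS; 4,000 IMR90 in MEM-alpha/10% FCS), adhered overnight, then given 7 doses of compound at 0-250 nM for 72 h at 37 °C. Viability read by Calcein AM fluorescence (ex 485, em 530) after 75 min; IC50 derived.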

IMR90 cells = assay: Calcein AM viability assay, IMR90; type: cell-based; conditions: Homo sapiens, IMR-90, 72 h, read-out: IMR90 viability IC50
Procedure: The potency of Cdk inhibitors, as measured by loss of cellular viability, was determined with the Calcein AM assay (Molecular Probes). Calcein AM is a substrate of intracellular esterases, which is cleaved only in viable cells to generate a fluorescent product that can be quantified with a fluorescent plate reader. The fluorescent signal is proportional to the number of viable cells, and thus loss of signal in response to the exposure of cells to Cdk inhibitors correlates with a loss of viability. This assay can distinguish cell cycle arrest, in which cells may still by viable, from loss of viability and is thus well suited for the evaluation of Cdk inhibitors. A compound that is a potent cytotoxic, may cause significant loss of cell viability in such assay.
Cellular IC50's were determined in the human colorectal carcinoma cell line, HCT-116, and the normal human fibroblast, IMR90. Protein adjusted IC50's were also determined in HCT-116.
HCT-116 or IMR90 cells were recovered from sub-confluent plates by trypsinization and 1,000 or 4,000 cells, respectively, were plated in 24-well dishes and incubated overnight at 37° C., 5% CO2. […]
A 5 μM Calcein AM solution was prepared by dissolving a […] aliquot of Calcein (Molecular Probes catalog # C3100) in 50 μl DMSO. […] (protected from light) and the fluorescent signal was read on a fluorescent plate reader (excitation 485/20 and emission 530/25).

[5] = system: NCI panel of 60 cell lines; assay: NCI panel of human tumor cell lines (SRB), Mean-Graph Mid-point; type: cell-based; conditions: read-out: NCI panel MG-MID (Mean-Graph Mid-point, average IC50 over the whole cell panel)
Description: (§7) The evaluation of compounds at the National Cancer Institute in their panel of 60 cell lines provides a wealth of information regarding efficacy in a wide range of tumor types and genetic backgrounds. Included within this panel are cell lines derived from leukemia, melanoma and cancers of the lung, colon, brain, ovary, breast, prostate and kidney. Use of this panel provides a measure of the efficacy of compounds in cells with alterations in many genes that are associated with neoplastic transformation including p53 and Her2/Neu as well as those involved in metabolism and those which confer multi-drug resistance. The data generated in these cell lines with the protocol described below can be used to evaluate the activity of compounds.
Cells were grown in RPMI-1640 10% FCS and plated in 96 well micro-titer plates at densities ranging from 5,000 to 40,000 cells/well. The plates were incubated for 24 hours at 37° C., 5% CO2 for 24 hours. Media containing twice the desired final concentration of the compound (5 doses spanning 4 logs) was prepared and 100 μl was added to each well containing 100 μl media plus cells to yield the desired final concentration. The plates were then incubated for an additional 48 hours.
The effect of the compound on cellular viability was determined with the Sulforhodamine B (SRB) assay, which measures total protein. Cells were fixed with cold TCA to a final concentration of 10% and incubated at 4° C. for 60 minutes. The supernatant was discarded and the plates were washed five times with water and air-dried. SRB solution at […] in 1% acetic acid was added to each well and the plates were incubated for 10 minutes at room temperature. The plates were washed five times with 1% acetic acid and air-dried. The bound stain was solubilized with 10 mM trizma base and the absorbance was read on a plate reader at […].

[6] = system: adriamycin resistant cell line (ADR-res); assay: NCI panel (SRB), adriamycin resistant cell line; type: cell-based; conditions: Homo sapiens
Description: as §7
Cells were grown in RPMI-1640 10% FCS and plated in 96 well micro-titer plates at densities ranging from 5,000 to 40,000 cells/well. The plates were incubated for 24 hours at 37° C., 5% CO2 for 24 hours. […]
The effect of the compound on cellular viability was determined with the Sulforhodamine B (SRB) assay, which measures total protein. […] The bound stain was solubilized with 10 mM trizma base and the absorbance was read on a plate reader at […].

[7] = HCT-116, 72 h, read-out: HCT-116 IC50 Viability

IC50 (HCT-116 cells [1]; HCT-116, 24 h): < 10 nM
IC50 (HCT-116 cells [1]; HCT-116, 48 h): < 100 nM
IC50 (arrested HCT-116 cells): < 100 nM
IC50 [2]: < 10 µM
SMILES: CC(C)N1CCN(CCOc2ccc(-c3[nH]nc4c3C(=O)c3c(NC(=O)NN5CCOCC5)cccc3-4)cc2)CC1 [E]
IC50 (arrested IMR90 cells): > 100 nM

SMILES: Cc1cn([C@H]2C[C@H](N=[N+]=[N-])[C@@H](CO)O2)c(=O)[nH]c1=O [AZT, reference compound]
TI: TC50/IC50 (HIV-1 ROJO): >100
IC50 (HIV-1 ROJO; read-out: IC50: 50% inhibition of virus replication measured by reverse transcriptase levels in the supernatant, HIV-1 ROJO, 7 days post infection): < 10 nM
CC50 [3]: > 1000 nM

SMILES: O=C(Nc1cccc2c1C(=O)c1c-2n[nH]c1-c1ccc(OP(=O)(O)O)cc1)NN1CCOCC1 [J]
IC50 (HCT-116 cells [4]; [7]): < 1000 nM
IC50 (IMR90 cells): < 100 nM

IC50 (HCT-116 cells [4]; HCT-116, plus 1 mg/ml alpha acidic glycoprotein and 45 mg/ml human serum albumin, read-out: HCT-116 IC50 Protein adjusted): < 1000 nM
SMILES: CC(C)c1nn(-c2c(Cl)cc(Cl)cc2Cl)c2nc(Cc3ccc(OCCN4CCOCC4)cc3)[nH]c(=O)c12 [A]
IC50 [5]: < 100 nM
IC50 [6]: < 1000 nM

SMILES: CC(C)c1nn(-c2c(Cl)cccc2Cl)c2nc(Cc3ccc(OP(=O)(O)O)cc3)[nH]c(=O)c12 [Compound B]
IC50 (HCT-116 cells [4]; [7]): < 1000 nM
IC50 (IMR90 cells): < 1000 nM
